Test results published in US4159328A, “Tetrahydro-1,3,5-thiadiazin-4-one derivative” (Nihon Nohyaku Co., Ltd., priority 1977, dated 1979).
Like-named read-outs stand apart in the source and are kept apart here.

Legend:
Type in all cases: in vivo
[1] = tested on: larvae of brown planthopper (Nilaparvata lugens Stahl); test: Test Example 1: insecticidal activity against larvae of brown planthopper; details: 120 h, third-instar larvae, 25° C., 5 days after treatment
Method in brief: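 Rice seedlings at 1.5-leaf stage were dipped for 30 s in a 400 ppm test composition, air-dried, and infested with third-instar N. lugens larvae. After holding at 25 °C, mortality was scored 5 or 7 days post-treatment from three replicates.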

[2] = tested on: larvae of white-backed planthopper (Sogatella furcifera Horvath); test: Test Example 2: insecticidal activity against larvae of white-backed planthopper; details: 168 h, 400 ppm, first-instar larvae, 25° C., seven days after treatment, read-out: Mortality
Method in brief: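 Rice seedlings at 1.5-leaf stage were dipped 30 s in 400 ppm test composition, air-dried, and infested with five first-instar larvae. Tubes were held at 25°C, and mortality was scored at 7 days from triplicate tests.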

[3] = tested on: two-spotted spider mite (Tetranychus urticae Koch); test: Test Example 3: activity to two-spotted spider mite; details: 120 h, 1,000 ppm, 5 days after treatment
From the text: Activity to two-spotted spider mite (Tetranychus urticae Koch).
Testing method: Two-spotted spider mites were set free on the pot-planted soybean in a greenhouse. On the next day, a test composition of 1,000 ppm concentration was sprayed over the soybean by means of a spray gun. Two days or five days after the treatment, dead-and-survival was inspected to calculate the mortality.

[4] = tested on: cirrus red mite (Panonychus citri McGregor); test: Test Example 4: activity to citrus red mite (Rothamstead method); set-up: concentration or dose not given beside the values; details: two days after treatment, 25° C.; 2880 min
Experimental: Activity to cirrus red mite (Panonychus citri McGregor).
Testing method: The test was performed by Rothamstead method. A test composition was sprayed by means of a spray gun over grapefruit leaves infested with citrus red mites. After air-drying the grapefruit was left standing in a constant temperature cabinet at 25° C. Two days after the treatment, the number of survived mites was counted to calculate the mortality.

[5] = tested on: larvae of house mosquito (Culex pipiens pallens Coquillett); test: Test Example 6: insecticidal activity to larvae of house mosquito; details: 120 h
Method in brief: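 Twenty first-instar Culex pipiens pallens larvae placed with feed in test composition diluted in deionized water to 10 ppm. Kept at 25 °C, and mortality counted five days after treatment.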

[6] = tested on: larvae of 28-spotted lady beetle (Epilachna vigintioctopunctana Fabricius); test: Test Example 8: insecticidal activity against larvae of 28-spotted lady beetle; details: 120 h
Experimental: Insecticidal activity against larvae of 28-spotted lady beetle (Epilachna vigintioctopunctana Fabricius).
Testing method: Leaflets of tomato grown in a greenhouse were dipped in a test composition of 100 ppm concentration for 30 seconds and after that the leaflets were dried by air. In a Petri dish covered on the bottom with a piece of filter paper, were introduced 1 ml of water and three treated tomato leaflets. After having been infested with seven second-instar larvae of 28-spotted lady beetle, the Petri dish was left standing in a constant temperature cabinet at 25° C. Five days after the treatment, the dead-and-survival was inspected to calculate the mortality (2-replication test).

[7] = tested on: larvae of bug. (Togo hemipterus Scott); test: Test Example 9: insecticidal activity against larvae of bug; details: 120 h, 10 ppm, first-instar larvae, 25° C., five days, read-out: Mortality
Experimental: Insecticidal activity against larvae of bug. (Togo hemipterus Scott).
Test method: Into a glass tube (1.6 cm in internal diameter and 9 cm in length), was added 1 ml of a test composition in 10 ppm concentration just to moisten the absorbent cotton. Five rice seeds and five first-instar larvae were introduced into the glass tube and the tube end was covered with a piece of Japanese paper. The glass tube was kept in a constant temperature cabinet at 25° C. Five days after treatment, the dead-and-survival was inspected to calculate the mortality (3-replication test).

[8] = tested on: larvae of green rice leafhopper (Nephotettix cincticeps Uhler); test: Test Example 5: activity against larvae of green rice leafhopper; details: 168 h, 400 ppm, second-instar larvae, 25° C., seven days after treatment, read-out: Mortality
Method in brief: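 Rice seedlings at 1.5 leaf age dipped 30 seconds in 400 ppm test composition, air-dried, then infested with five second-instar larvae. Kept at 25° C; mortality scored seven days after treatment, three replicates.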

In the case of `Cc1ccc(N2CSC(=NC(C)C)N(C(C)C)C2=O)cc1` [Compound 316], the mortality at 400 ppm [1] was 100%, the mortality at 400 ppm [2] was 100% and the mortality at 1000 ppm [3] was 100%. It also gave a Mortality [4] of 100%, a mortality at 10 ppm [5] of 70% and a mortality at 100 ppm [6] of 100%.
`CCC(C)N1C(=O)N(c2ccccc2)CSC1=NC(C)(C)CC(C)(C)C` (stereo not drawn) [Compound 157] gave a mortality at 400 ppm [1] of 100%, a mortality at 10 ppm [5] of 100% and a mortality at 100 ppm [6] of 100%. The mortality at 10 ppm [7] was 100%.
Compound `CC(C)CN=C1SCN(c2ccccc2)C(=O)N1CC(C)C` [Compound 148] has a mortality at 400 ppm [1] of 100%, a Mortality [4] of 100% and a mortality at 100 ppm [6] of 100%.
In the case of `C=CCN1C(=O)N(c2ccccc2)CSC1=NC(C)C` [Compound 141], the mortality at 400 ppm [1] was 100%, the mortality at 400 ppm [8] was 100% and the mortality at 10 ppm [5] was 100%. The mortality at 100 ppm [6] was 100% and the mortality at 10 ppm [7] was 80%.
In the case of `CC(C)N1C(=O)N(c2ccccc2)CSC1=NC(C)(C)CC(C)(C)C` [Compound 156], the mortality at 400 ppm [1] was 100%, the mortality at 400 ppm [8] was 100% and the mortality at 10 ppm [5] was 100%. For the same compound, the mortality at 100 ppm [6] was 90% and the mortality at 10 ppm [7] was 50%.
`C=CCN1C(=O)N(c2ccccc2)CSC1=NC(C)CC` (stereo not drawn) [Compound 142] gave a mortality at 400 ppm [1] of 100%, a mortality at 400 ppm [8] of 100% and a mortality at 10 ppm [5] of 100%. The mortality at 100 ppm [6] was 100% and the mortality at 10 ppm [7] was 100%.
`C=CCN1C(=O)N(c2ccccc2)CSC1=NCCC` [Compound 140] was tested, and the mortality at 400 ppm [1] was 100%, the mortality at 400 ppm [8] was 100% and the mortality at 10 ppm [5] was 100%. For the same compound, the mortality at 100 ppm [6] was 50% and the mortality at 10 ppm [7] was 50%.
`CCCN=C1SCN(c2ccccc2)C(=O)N1CC` [Compound 126] was tested, and the mortality at 400 ppm [1] was 100%, the mortality at 10 ppm [5] was 100% and the mortality at 100 ppm ([6]; 100 ppm, second-instar larvae, 25° C., five days, read-out: Mortality) was 80%. The mortality at 10 ppm [7] was 100%.
Compound `CCN1C(=O)N(c2ccccc2)CSC1=NC(C)C` [Compound 127] has a mortality at 400 ppm [1] of 100%, a mortality at 10 ppm [5] of 100% and a mortality at 100 ppm [6] of 80%. The mortality at 10 ppm [7] was 100%.
`CCC(C)N1C(=O)N(c2ccccc2Cl)CSC1=NC(C)(C)C` (stereo not drawn) [Compound 249] was tested, and the mortality at 400 ppm [1] was 100%, the mortality at 1000 ppm [3] was 70% and the Mortality [4] was 100%. For the same compound, the mortality at 400 ppm [8] was 100%, the mortality at 10 ppm [5] was 100% and the mortality at 100 ppm [6] was 100%.
`CCCN=C1SCN(c2ccccc2)C(=O)N1CCC` [Compound 134] gave a mortality at 400 ppm [1] of 100%, a mortality at 10 ppm [5] of 80% and a mortality at 100 ppm [6] of 80%. The mortality at 10 ppm [7] was 80%.
`CCCN1C(=O)N(c2ccccc2)CSC1=NC(C)(C)C` [Compound 137] gave a mortality at 400 ppm [1] of 80%, a mortality at 10 ppm [5] of 100% and a mortality at 100 ppm [6] of 50%. The mortality at 10 ppm [7] was 50%.
With `CC(C)CN1C(=O)N(c2ccccc2)CSC1=NC(C)(C)C` [Compound 150] the mortality at 400 ppm [1] was 100%, the mortality at 400 ppm [8] was 90% and the mortality at 10 ppm [5] was 100%. For the same compound, the mortality at 100 ppm [6] was 80% and the mortality at 10 ppm [7] was 50%.
`CCN1C(=O)N(c2ccccc2)CSC1=NCC(C)C` [Compound 129] showed a mortality at 400 ppm [1] of 80%, a mortality at 10 ppm [5] of 100% and a mortality at 10 ppm [7] of 100%.
`CCC(C)N1C(=O)N(c2ccc(C)cc2)CSC1=NC(C)(C)C` (stereo not drawn) [Compound 319] showed a mortality at 400 ppm [1] of 100%, a mortality at 400 ppm [2] of 100% and a mortality at 1000 ppm [3] of 100%. The Mortality [4] was 100%, the mortality at 400 ppm [8] was 100% and the mortality at 10 ppm [5] was 100%. For the same compound, the mortality at 100 ppm [6] was 100%.
`CC(C)N=C1SCN(c2ccccc2)C(=O)N1C(C)C` [Compound 144, 2-Isopropylimino-3-isopropyl-5-phenyltetrahydro-1,3,5-thiadiazin-4-one] showed a mortality at 400 ppm [2] of 100%, a mortality at 400 ppm [8] of 100% and a mortality at 10 ppm [5] of 100%. For the same compound, the mortality at 100 ppm [6] was 100% and the mortality at 10 ppm [7] was 100%.
